Measurements taken from patent publication EP4089103A1, “CLPCP PROTEASE-BINDING CYCLIC HEPTAPEPTIDES” (priority 2021, dated 2022).
In brackets after ≈: the same amount, converted by molar mass. Several values for one entry are separate records, joined by “and”; a condition that tells them apart may be missing. Equal values may be shown once. Read-outs that look alike come from different tables or passages of the source. Starred links: 1 amine or outer side, 2 acyl side, 3 side chain; linkers in the order of their positions; H or OH if unused. Non-standard residues stand in square brackets, D forms with d. Residues, ends and D or L forms follow the SMILES beside them. *: point of attachment. Trp(1-(1,1-Me2-allyl)) = C=CC(C)(C)n1cc(C[C@H](N)C(=O)O)c2ccccc21; Phe(βR-OMe) = CO[C@H](c1ccccc1)[C@H](N)C(=O)O; X4 = C/C=C/[C@@H](C)[C@H](N[*:1])C(=O)[*:2]; X2 = CN([C@@H](CCCO)C(=O)[*:2])[*:1]; NMeE = CN[C@@H](CCC(=O)O)C(=O)O; NMeL = CN[C@@H](CC(C)C)C(=O)O; NMeK = CN[C@@H](CCCCN)C(=O)O; tBu = CC(C)(C)*; NHPr = CCCN*

How the values were obtained:
[1] = amide bond, 21-membered ring
mycobacterial cell = test: Minimal Inhibitory Concentration (MIC); assay type: cell-based
ClpC1NTD = biological target: T1, ClpC1NTD (Mycolicibacterium smegmatis, UniProt A0R574); test: Binding affinity by isothermal titration calorimetry (ITC); settings: ITC at 25 °C, 50 mM Tris pH 7.5, 100 mM NaCl, 2% DMSO, single binding site model
T1 construct: M. smegmatis clpC1 NTD (1-148) was cloned in pET21a; hexahistidine (C); made in house; host or cells: E. coli BL21 (DE3) or Rosetta
T1 sequence (A0R574 1-148): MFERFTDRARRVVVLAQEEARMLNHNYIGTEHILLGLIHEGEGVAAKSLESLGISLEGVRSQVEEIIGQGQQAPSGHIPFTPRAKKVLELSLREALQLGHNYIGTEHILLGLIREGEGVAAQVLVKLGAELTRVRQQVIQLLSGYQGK
Protocol: Binding affinities were determined using isothermal titration calorimetry (ITC).
ITC experiments were carried out using MicroCal PEAQ-ITC (Malvern) at 25 °C, whilst stirring at 750 rpm in a buffer containing 50 mM Tris pH 7.5, 100 mM NaCl. Each titration consisted of 19 injections with intervals of 120 s (the first injection of 0.4 µL followed by 18 injections of 2 µL). DMSO concentration was matched between cell and syringe to 2%. The data were fitted to a single binding site model with a fitted offset subtraction in the MicroCal PEAQ-ITC Analysis Software. Each titration was repeated at least two times. Titrations were performed with ligand in the syringe and protein in the cell. A control titration of ligand into buffer was performed in order to account for the heat of dilution. Titrations involving compounds with poorer solubility of the compound in buffer were performed with ligand in the cell and protein in the syringe. The following table 2 provides the results of the determination. Table 2: results for dissociation constant (KD) and Minimal Inhibitory Concentration (MIC)

[2] = from H-Val-MeLeu-Ile-Trp(Boc)-MeGlu(tBu)-Ala-Phe-OH; amide bond; 21-membered ring; T3P/DIEA; DCM; 0.75 mM; 25.0 °C
[3] = the molecule shown is the open-chain precursor
[4] = the molecule shown is the open-chain precursor, DIC/HOAt/Et3N, DCM, 0.75 mM, 25.0 °C

“H-Glu(TOTA-TMP)-Phe(3R-MeO)-Val-MeLeu-Ile-Trp(Boc)-MeLys(Boc)-OH?” showed a ring closure, crude yield [1, 3] of 65%.
In the case of `CC[C@H](C)[C@@H]1NC(=O)[C@H](CC(C)C)N(C)C(=O)[C@H](C(C)C)NC(=O)[C@H](Cc2ccccc2)NC(=O)[C@H](C)NC(=O)[C@H](CCCNC(=O)OC(C)(C)C)N(C)C(=O)[C@H](Cc2cn(C(=O)OC(C)(C)C)c3ccccc23)NC1=O` [H-Val-MeLeu-Ile-Trp(Boc)-MeOrn(Boc)-Ala-Phe-OH], the ring closure, crude yield ([1]; from H-Val-MeLeu-Ile-Trp(Boc)-MeOrn(Boc)-Ala-Phe-OH, T3P/DIEA, DCM, 0.75 mM, 25.0 °C) is reported as 98%.
In the case of `CC[C@H](C)[C@@H]1NC(=O)[C@H](CC(C)C)N(C)C(=O)[C@H](C(C)C)NC(=O)[C@H](Cc2ccccc2)NC(=O)[C@H](C)NC(=O)[C@H](CCCO)N(C)C(=O)[C@H](Cc2c[nH]c3ccccc23)NC1=O` [CylcoA_D4] (cyclo(AFV[NMeL]IW[X2])), the MIC (mycobacterial cell) is reported as > 30 µM and the Kd (ClpC1NTD) is reported as 107 µM.
With `CC[C@H](C)[C@@H]1NC(=O)[C@H](CC(C)C)N(C)C(=O)[C@H](C(C)C)NC(=O)[C@H](Cc2ccccc2)NC(=O)[C@H](C)NC(=O)[C@H](CCCO)N(C)C(=O)[C@H](Cc2ccc(OC(C)(C)C)cc2)NC1=O` [CycloA_D5a] (cyclo(V[NMeL]IY(tBu)[X2]AF)) the MIC (mycobacterial cell) was > 30 µM and the Kd (ClpC1NTD) was 128 µM.
For “H-Val-MeLeu-dehydroisonorleucine-Trp(prenyl)-MeLys(Boc)-Ala-Phe(3R-MeO)-OH”, the ring closure, crude yield [1, 4] was 81%.
With “H-Glu(TOTA-PMX-methylester)-Phe(3R-MeO)-Val-MeLeu-Ile-Trp(Boc)-MeLys(Boc)-OH” the ring closure, crude yield [1, 3] was 77% and 58%.
Compound `CC[C@H](C)[C@@H]1NC(=O)[C@H](CC(C)C)N(C)C(=O)[C@H](C(C)C)NC(=O)[C@H](Cc2ccccc2)NC(=O)[C@H](C)NC(=O)[C@H](CCCO)N(C)C(=O)[C@H](Cc2ccc(O)cc2)NC1=O` [CycloA_D5b] (cyclo(V[NMeL]IY[X2]AF)) has a Kd (ClpC1NTD) of 326 µM.
In the case of “H-Val-MeLeu-Ile-Trp(Boc)-MeLys(Boc)-Glu(TOTA-SLF')-Phe(3R-MeO)-OH”, the ring closure, crude yield [1, 3] is reported as 54%.
With `CC[C@H](C)[C@@H]1NC(=O)[C@H](CCC(=O)O)N(C)C(=O)[C@H](C(C)C)NC(=O)[C@H]([C@H](OC)c2ccccc2)NC(=O)[C@H](C)NC(=O)[C@H](CCCCN)N(C)C(=O)[C@H](Cc2c[nH]c3ccccc23)NC1=O` [CycloA_D13] (cyclo(A[Phe(βR-OMe)]V[NMeE]IW[NMeK])) the MIC (mycobacterial cell) was >200 µM.
For `CC[C@H](C)[C@@H]1NC(=O)[C@H](CC(C)C)N(C)C(=O)[C@H](C(C)C)NC(=O)[C@H](Cc2ccccc2)NC(=O)[C@H](C)NC(=O)[C@H](CCC(=O)OC)N(C)C(=O)[C@H](Cc2ccc(OC(C)(C)C)cc2)NC1=O` [H-Val-MeLeu-Ile-Tyr(tBu)-MeGlu(Me)-Ala-Phe-OH], the ring closure, crude yield ([1]; from H-Val-MeLeu-Ile-Tyr(tBu)-MeGlu(Me)-Ala-Phe-OH, T3P/DIEA, DCM, 0.75 mM, 25.0 °C) was 72%.
With “H-Val-MeLeu-Ile-Trp(prenyl)-MeLys(Boc)-Ala-Phe(3R-MeO)-OH” the ring closure, crude yield [1, 4] was 65%.
With `CCCNC(=O)CC[C@H]1C(=O)N[C@@H](C)C(=O)N[C@@H](Cc2ccccc2)C(=O)N[C@@H](C(C)C)C(=O)N(C)[C@@H](CC(C)C)C(=O)N[C@@H]([C@@H](C)CC)C(=O)N[C@@H](Cc2c[nH]c3ccccc23)C(=O)N1C` [CycloA_D7] (cyclo(AFV[NMeL]IW[NMeE](NHPr))) the MIC (mycobacterial cell) was > 120 µM and the Kd (ClpC1NTD) was 26.8 µM.
`CC[C@H](C)[C@@H]1NC(=O)[C@H](CC(C)C)N(C)C(=O)[C@H](C(C)C)NC(=O)[C@H](Cc2ccccc2)NC(=O)[C@H](C)NC(=O)[C@H](CCCO[Si](C)(C)C(C)(C)C)N(C)C(=O)[C@H](Cc2cn(C(=O)OC(C)(C)C)c3ccccc23)NC1=O` [H-Val-MeLeu-Ile-Trp(Boc)-MeHnv(TBDMS)-Ala-Phe-OH] showed a ring closure, crude yield ([1]; from H-Val-MeLeu-Ile-Trp(Boc)-MeHnv(TBDMS)-Ala-Phe-OH, T3P/DIEA, DCM, 0.75 mM, 25.0 °C) of 94%.
Compound `CC[C@H](C)[C@@H]1NC(=O)[C@H](CC(C)C)N(C)C(=O)[C@H](C(C)C)NC(=O)[C@H](Cc2ccccc2)NC(=O)[C@H](C)NC(=O)[C@H](CCCCN)N(C)C(=O)[C@H](Cc2c[nH]c3ccccc23)NC1=O` [CycloA_D6] (cyclo(AFV[NMeL]IW[NMeK])) has an MIC (mycobacterial cell) of 24 µM (≈ 21.3 µg/mL) and a Kd (ClpC1NTD) of 14.9 µM.
“H-Val-MeLeu-Ile-Trp(Boc)-MeLys(Boc)-Glu(TOTA-(+)JQ1)-Phe(3R-MeO)-OH” gave a ring closure, crude yield [1, 3] of 64%.
“H-Val-MeLeu-Ile-Trp(prenyl)-MeLys(Boc)-Ala-Phe-OH” gave a ring closure, crude yield [1, 4] of 78%.
For `CC[C@H](C)[C@@H]1NC(=O)[C@H](CC(C)C)N(C)C(=O)[C@H](C(C)C)NC(=O)[C@H]([C@H](OC)c2ccccc2)NC(=O)[C@H](C)NC(=O)[C@H](CCCCN)N(C)C(=O)[C@H](Cc2c[nH]c3ccccc23)NC1=O` [CycloA_D9] (cyclo(W[NMeK]A[Phe(βR-OMe)]V[NMeL]I)), the MIC (mycobacterial cell) was 12 µM (≈ 11 µg/mL) and the Kd (ClpC1NTD) was 2.8 µM.
Work on `CC[C@H](C)[C@@H]1NC(=O)[C@H](CC(C)C)N(C)C(=O)[C@H](C(C)C)NC(=O)[C@H](Cc2ccccc2)NC(=O)[C@H](C)NC(=O)[C@H](CCC(=O)O)N(C)C(=O)[C@H](Cc2c[nH]c3ccccc23)NC1=O` [CycloA_D2] (cyclo(AFV[NMeL]IW[NMeE])) yielded a Kd (ClpC1NTD) of 225 µM.
Compound “H-Val-MeLeu-Ile-Trp(Boc)-MeLys(Boc)-Glu(TOTA-(-)JQ1)-Phe(3R-MeO)-OH” has a ring closure, crude yield [1, 3] of 70%.
`CC[C@H](C)[C@@H]1NC(=O)[C@H](CC(C)C)N(C)C(=O)[C@H](C(C)C)NC(=O)[C@H]([C@H](OC)c2ccccc2)NC(=O)[C@H](C)NC(=O)[C@H](CCCCNC(=O)OC(C)(C)C)N(C)C(=O)[C@H](Cc2cn(C(=O)OC(C)(C)C)c3ccccc23)NC1=O` [H-Val-MeLeu-Ile-Trp(Boc)-MeLys(Boc)-Ala-Phe(3R-MeO)-OH] gave a ring closure, crude yield ([1]; from H-Val-MeLeu-Ile-Trp(Boc)-MeLys(Boc)-Ala-Phe(3R-MeO)-OH, T3P/DIEA, DCM, 0.75 mM, 25.0 °C) of 88%.
“H-Val-MeLeu-Ile-Trp(Boc)-MeLys(Boc)-Lys(Biotin)-Phe(3R-MeO)-OH” showed a ring closure, crude yield [1, 4] of 72%.
In the case of `C=CC(C)(C)n1cc(C[C@@H]2NC(=O)[C@H]([C@@H](C)CC)NC(=O)[C@H](CC(C)C)N(C)C(=O)[C@H](C(C)C)NC(=O)[C@H]([C@H](OC)c3ccccc3)NC(=O)[C@H](C)NC(=O)[C@H](CCCCN)N(C)C2=O)c2ccccc21` [CycloA_D11] (cyclo(A[Phe(βR-OMe)]V[NMeL]I[Trp(1-(1,1-Me2-allyl))][NMeK])), the MIC (mycobacterial cell) is reported as 20 µM (≈ 19.7 µg/mL).
With `CC[C@H](C)[C@@H]1NC(=O)[C@H](CC(C)C)N(C)C(=O)[C@H](C(C)C)NC(=O)[C@H](Cc2ccccc2)NC(=O)[C@H](C)NC(=O)[C@H](CCC(=O)OC(C)(C)C)N(C)C(=O)[C@H](Cc2cn(C(=O)OC(C)(C)C)c3ccccc23)NC1=O` [H-Val-MeLeu-Ile-Trp(Boc)-MeGlu(tBu)-Ala-Phe-OH] the ring closure, crude yield ([1]; from H-Val-MeLeu-Ile-Trp(Boc)-MeGlu(tBu)-Ala-Phe-OH, T3P/DIEA, DCM, 0.75 mM, 25.0 °C) was 52% and 54% and the ring closure, yield after HPLC [2] was 39%.
Work on `C=CC(C)(C)n1cc(C[C@@H]2NC(=O)[C@H]([C@H](C)/C=C/C)NC(=O)[C@H](CC(C)C)N(C)C(=O)[C@H](C(C)C)NC(=O)[C@H]([C@H](OC)c3ccccc3)NC(=O)[C@H](C)NC(=O)[C@H](CCCCN)N(C)C2=O)c2ccccc21` [CycloA_D17] (cyclo(A[Phe(βR-OMe)]V[NMeL][X4][Trp(1-(1,1-Me2-allyl))][NMeK])) yielded an MIC (mycobacterial cell) of 20 µM (≈ 19.9 µg/mL).
`CC[C@H](C)[C@@H]1NC(=O)[C@H](CCC(=O)OC(C)(C)C)N(C)C(=O)[C@H](C(C)C)NC(=O)[C@H]([C@H](OC)c2ccccc2)NC(=O)[C@H](C)NC(=O)[C@H](CCCCNC(=O)OC(C)(C)C)N(C)C(=O)[C@H](Cc2cn(C(=O)OC(C)(C)C)c3ccccc23)NC1=O` [H-Val-MeGlu(tBu)-Ile-Trp(Boc)-MeLys(Boc)-Ala-Phe(3R-MeO)-OH] showed a ring closure, crude yield ([1]; from H-Val-MeGlu(tBu)-Ile-Trp(Boc)-MeLys(Boc)-Ala-Phe(3R-MeO)-OH, T3P/DIEA, DCM, 0.75 mM, 25.0 °C) of 52%.
`C=CC(C)(C)n1cc(C[C@@H]2NC(=O)[C@H]([C@@H](C)CC)NC(=O)[C@H](CC(C)C)N(C)C(=O)[C@H](C(C)C)NC(=O)[C@H](Cc3ccccc3)NC(=O)[C@H](C)NC(=O)[C@H](CCCCN)N(C)C2=O)c2ccccc21` [CycloA_D10] (cyclo(AFV[NMeL]I[Trp(1-(1,1-Me2-allyl))][NMeK])) gave an MIC (mycobacterial cell) of 40 µM (≈ 38.2 µg/mL).
“H-Val-MeLeu-Ile-Trp(Boc)-MeLys(Boc)-Glu(TOTA-Biotin)-Phe(3R-MeO)-OH” showed a ring closure, crude yield [1, 4] of 63%.
Compound `CC[C@H](C)[C@@H]1NC(=O)[C@H](CC(C)C)N(C)C(=O)[C@H](C(C)C)NC(=O)[C@H](Cc2ccccc2)NC(=O)[C@H](C)NC(=O)[C@H](CCCCNC(=O)OC(C)(C)C)N(C)C(=O)[C@H](Cc2cn(C(=O)OC(C)(C)C)c3ccccc23)NC1=O` [H-Val-MeLeu-Ile-Trp(Boc)-MeLys(Boc)-Ala-Phe-OH] has a ring closure, crude yield ([1]; from H-Val-MeLeu-Ile-Trp(Boc)-MeLys(Boc)-Ala-Phe-OH, T3P/DIEA, DCM, 0.75 mM, 25.0 °C) of 75%.
